From PubChem BioAssay (NCI)
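Compound exposure: 48 hours, 5 concentrations, 96-well plates. Abbreviation: GI50, concentration required for 50% inhibition of growth. TGI marks complete inhibition of growth.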

How the values were obtained:
Test in all cases: growth of human tumour cells (NCI), 48 h
COLO 205 colon = test system: COLO 205 colon
OVCAR-8 ovarian = test system: OVCAR-8 ovarian
BT-549 breast = test system: BT-549 breast
SNB-19 CNS = test system: SNB-19 CNS
HS 578T breast = test system: HS 578T breast
EKVX NSCLC = test system: EKVX NSCLC
SK-MEL-5 melanoma = test system: SK-MEL-5 melanoma
MDA-MB-231 breast = test system: MDA-MB-231 breast
IGROV1 ovarian = test system: IGROV1 ovarian
SK-OV-3 ovarian = test system: SK-OV-3 ovarian
SW-620 colon = test system: SW-620 colon
CAKI-1 renal = test system: CAKI-1 renal
SK-MEL-28 melanoma = test system: SK-MEL-28 melanoma
A498 renal = test system: A498 renal
LOX IMVI melanoma = test system: LOX IMVI melanoma
MDA-MB-435 = test system: MDA-MB-435
SN12C renal = test system: SN12C renal
M14 melanoma = test system: M14 melanoma
MDA-N = test system: MDA-N
786-0 renal = test system: 786-0 renal
TK-10 renal = test system: TK-10 renal
NCI-H460 lung = test system: NCI-H460 lung
SF-539 CNS = test system: SF-539 CNS
SK-MEL-2 melanoma = test system: SK-MEL-2 melanoma
HCT-15 colon = test system: HCT-15 colon
UACC-62 melanoma = test system: UACC-62 melanoma
CCRF-CEM leukemia = test system: CCRF-CEM leukemia
OVCAR-3 ovarian = test system: OVCAR-3 ovarian
HOP-92 NSCLC = test system: HOP-92 NSCLC
NCI-H23 lung = test system: NCI-H23 lung
OVCAR-4 ovarian = test system: OVCAR-4 ovarian
SR leukemia = test system: SR leukemia
KM12 colon = test system: KM12 colon
SF-295 CNS = test system: SF-295 CNS
UO-31 renal = test system: UO-31 renal
NCI-H226 lung = test system: NCI-H226 lung
OVCAR-5 ovarian = test system: OVCAR-5 ovarian
PC-3 prostate = test system: PC-3 prostate
SF-268 CNS = test system: SF-268 CNS
DU-145 prostate = test system: DU-145 prostate
ACHN renal = test system: ACHN renal
A549 NSCLC = test system: A549 NSCLC
UACC-257 melanoma = test system: UACC-257 melanoma
MALME-3M melanoma = test system: MALME-3M melanoma
NCI-H522 lung = test system: NCI-H522 lung
HCC-2998 colon = test system: HCC-2998 colon
MCF7 breast = test system: MCF7 breast
MOLT-4 leukemia = test system: MOLT-4 leukemia
HL-60(TB) leukemia = test system: HL-60(TB) leukemia
RXF 393 renal = test system: RXF 393 renal
HOP-62 NSCLC = test system: HOP-62 NSCLC
HCT-116 colon = test system: HCT-116 colon
SNB-75 CNS = test system: SNB-75 CNS
RPMI-8226 leukemia = test system: RPMI-8226 leukemia
K-562 leukemia = test system: K-562 leukemia
NCI/ADR-RES ovarian = test system: NCI/ADR-RES ovarian
T-47D breast = test system: T-47D breast
U251 CNS = test system: U251 CNS

Cc1ccc2c(=O)cc(-c3cccc(Cl)c3)[nH]c2n1
TGI (COLO 205 colon): > 35.8 µM | TGI (OVCAR-8 ovarian): > 100 µM | TGI (BT-549 breast): > 100 µM | TGI (SNB-19 CNS): > 100 µM | TGI (HS 578T breast): > 100 µM | TGI (EKVX NSCLC): > 100 µM | TGI (SK-MEL-5 melanoma): 4.7 µM | TGI (MDA-MB-231 breast): 3.63 µM | TGI (IGROV1 ovarian): > 100 µM | TGI (SK-OV-3 ovarian): > 100 µM | TGI (SW-620 colon): > 100 µM | TGI (CAKI-1 renal): > 100 µM | TGI (SK-MEL-28 melanoma): > 100 µM | TGI (A498 renal): > 100 µM | TGI (LOX IMVI melanoma): > 100 µM | TGI (MDA-MB-435): 0.0463 µM | TGI (SN12C renal): > 100 µM | TGI (M14 melanoma): > 100 µM | TGI (MDA-N): > 100 µM | TGI (786-0 renal): > 100 µM | TGI (TK-10 renal): > 100 µM | TGI (NCI-H460 lung): > 100 µM | TGI (SF-539 CNS): 0.0443 µM | TGI (SK-MEL-2 melanoma): > 100 µM | TGI (HCT-15 colon): > 35.8 µM | TGI (UACC-62 melanoma): > 100 µM | TGI (CCRF-CEM leukemia): > 100 µM | TGI (OVCAR-3 ovarian): 0.0274 µM | TGI (HOP-92 NSCLC): > 100 µM | TGI (NCI-H23 lung): > 31.6 µM | TGI (OVCAR-4 ovarian): > 100 µM | TGI (SR leukemia): > 100 µM | TGI (KM12 colon): > 37.5 µM | TGI (SF-295 CNS): 1.36 µM | TGI (UO-31 renal): > 100 µM | TGI (NCI-H226 lung): 25.9 µM | TGI (OVCAR-5 ovarian): > 100 µM | TGI (PC-3 prostate): > 100 µM | TGI (SF-268 CNS): > 100 µM | TGI (DU-145 prostate): > 100 µM | TGI (ACHN renal): > 100 µM | TGI (A549 NSCLC): > 100 µM | TGI (UACC-257 melanoma): > 100 µM | TGI (MALME-3M melanoma): > 100 µM | TGI (NCI-H522 lung): 1.61 µM | TGI (HCC-2998 colon): 41.5 µM | TGI (MCF7 breast): > 36 µM

Cc1cc(C)c2c(=O)cc(-c3cccc(Cl)c3)[nH]c2n1
TGI (COLO 205 colon): > 67.1 µM | TGI (OVCAR-8 ovarian): > 100 µM | TGI (BT-549 breast): 85.3 µM | TGI (SNB-19 CNS): > 100 µM | TGI (HS 578T breast): > 100 µM | TGI (MOLT-4 leukemia): > 38.8 µM | TGI (HL-60(TB) leukemia): 2.15 µM | TGI (EKVX NSCLC): > 100 µM | TGI (MDA-MB-231 breast): 8.09 µM | TGI (RXF 393 renal): > 100 µM | TGI (IGROV1 ovarian): > 100 µM | TGI (HOP-62 NSCLC): > 100 µM | TGI (SK-OV-3 ovarian): > 100 µM | TGI (SW-620 colon): > 100 µM | TGI (HCT-116 colon): > 23.1 µM | GI50 (CAKI-1 renal): 0.204 µM | TGI (CAKI-1 renal): > 100 µM | TGI (SK-MEL-28 melanoma): > 100 µM | TGI (A498 renal): > 100 µM | TGI (LOX IMVI melanoma): > 34.2 µM | TGI (SN12C renal): > 38.3 µM | TGI (M14 melanoma): > 100 µM | TGI (MDA-N): 0.0529 µM | TGI (786-0 renal): > 55.1 µM | TGI (TK-10 renal): > 100 µM | TGI (NCI-H460 lung): > 100 µM | TGI (SF-539 CNS): 0.464 µM | TGI (HCT-15 colon): > 100 µM | TGI (UACC-62 melanoma): > 100 µM | TGI (CCRF-CEM leukemia): > 100 µM | TGI (HOP-92 NSCLC): > 100 µM | TGI (NCI-H23 lung): > 100 µM | TGI (OVCAR-4 ovarian): > 100 µM | TGI (SR leukemia): > 100 µM | TGI (KM12 colon): > 100 µM | TGI (SF-295 CNS): 0.33 µM | TGI (UO-31 renal): > 100 µM | TGI (NCI-H226 lung): > 100 µM | TGI (PC-3 prostate): 0.0967 µM | TGI (SNB-75 CNS): > 100 µM | TGI (SF-268 CNS): > 100 µM | TGI (DU-145 prostate): > 100 µM | TGI (ACHN renal): > 100 µM | TGI (A549 NSCLC): > 100 µM | TGI (UACC-257 melanoma): > 94.1 µM | TGI (MALME-3M melanoma): > 100 µM | TGI (NCI-H522 lung): 0.742 µM | TGI (HCC-2998 colon): > 100 µM | TGI (MCF7 breast): > 100 µM

N#Cc1ccsc1Nc1ccccc1[N+](=O)[O-]
TGI (COLO 205 colon): > 100 µM | TGI (RPMI-8226 leukemia): > 100 µM | TGI (OVCAR-8 ovarian): > 100 µM | TGI (BT-549 breast): > 100 µM | TGI (SNB-19 CNS): > 100 µM | TGI (MOLT-4 leukemia): > 100 µM | TGI (EKVX NSCLC): > 100 µM | TGI (MDA-MB-231 breast): > 100 µM | TGI (RXF 393 renal): > 100 µM | TGI (IGROV1 ovarian): > 100 µM | TGI (HOP-62 NSCLC): > 100 µM | TGI (SK-OV-3 ovarian): > 100 µM | TGI (SW-620 colon): > 100 µM | TGI (HCT-116 colon): > 100 µM | TGI (CAKI-1 renal): > 100 µM | TGI (SK-MEL-28 melanoma): > 100 µM | TGI (A498 renal): > 100 µM | TGI (MDA-MB-435): > 100 µM | TGI (SN12C renal): > 100 µM | TGI (M14 melanoma): > 100 µM | TGI (MDA-N): > 100 µM | TGI (786-0 renal): > 100 µM | TGI (NCI-H460 lung): > 100 µM | TGI (SF-539 CNS): > 100 µM | TGI (HCT-15 colon): > 100 µM | TGI (UACC-62 melanoma): > 100 µM | TGI (CCRF-CEM leukemia): > 100 µM | TGI (OVCAR-3 ovarian): > 100 µM | TGI (HOP-92 NSCLC): > 100 µM | TGI (NCI-H23 lung): > 100 µM | TGI (OVCAR-4 ovarian): > 100 µM | TGI (SR leukemia): > 100 µM | TGI (KM12 colon): > 100 µM | TGI (SF-295 CNS): > 100 µM | TGI (UO-31 renal): > 100 µM | TGI (NCI-H226 lung): > 100 µM | TGI (OVCAR-5 ovarian): > 100 µM | TGI (PC-3 prostate): > 100 µM | TGI (SNB-75 CNS): > 100 µM | TGI (SF-268 CNS): > 100 µM | TGI (DU-145 prostate): > 100 µM | TGI (K-562 leukemia): > 100 µM | TGI (NCI/ADR-RES ovarian): > 100 µM | TGI (ACHN renal): > 100 µM | TGI (A549 NSCLC): > 100 µM | TGI (UACC-257 melanoma): > 100 µM | TGI (MALME-3M melanoma): > 100 µM | TGI (T-47D breast): > 100 µM | TGI (NCI-H522 lung): > 100 µM | TGI (HCC-2998 colon): > 100 µM | TGI (U251 CNS): > 100 µM | TGI (MCF7 breast): > 100 µM
